In the test the target is T1, hCBS-FL wild type (293T-CBS WT) (Homo sapiens, UniProt P35520).
T1 construct: human CBS or hCSE full-length (CBS-FL or CSE) was subcloned into pGEX-KG, pcDNA3 or pCDH vector; expressed in transfected cells
T1 sequence (P35520 1-551): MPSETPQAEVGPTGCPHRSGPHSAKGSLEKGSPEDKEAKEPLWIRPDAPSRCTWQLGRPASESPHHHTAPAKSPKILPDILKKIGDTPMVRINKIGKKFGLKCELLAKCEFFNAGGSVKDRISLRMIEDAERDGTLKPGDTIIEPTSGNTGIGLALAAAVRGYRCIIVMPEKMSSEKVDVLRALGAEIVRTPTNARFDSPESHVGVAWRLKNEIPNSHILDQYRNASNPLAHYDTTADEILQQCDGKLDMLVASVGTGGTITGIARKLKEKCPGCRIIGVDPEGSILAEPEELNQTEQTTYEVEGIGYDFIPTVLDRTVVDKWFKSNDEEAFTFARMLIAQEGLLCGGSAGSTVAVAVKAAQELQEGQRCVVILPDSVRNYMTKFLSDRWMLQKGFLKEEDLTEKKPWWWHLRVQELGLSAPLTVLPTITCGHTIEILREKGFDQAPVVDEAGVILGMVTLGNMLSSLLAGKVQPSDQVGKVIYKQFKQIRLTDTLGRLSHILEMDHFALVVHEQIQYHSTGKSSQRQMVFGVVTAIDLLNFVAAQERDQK
Description: H2S in HEK293T cells stably expressing hCBS WT (AzMC probe). It is filed as cell-based. To be noted: 8 h, 293T-CBS WT. Here is the method: HEK293T cells were transiently transfected with empty vector (EV, i and ii), hCBS-FL (iii and iv) or hCSE (v and vi) plasmids, followed by incubation with DMSO (i–iii and v) or 10 μM CH004 (iv and vi) for 8 h before staining with 50 μM AzMC, a H2S-specific probe (“Materials and Methods” section). For larger fluorescent and bright-field images, please see Supplementary Figure 4. The expression levels of hCBS or hCSE in HEK293T cells after transient transfections were determined by western blotting using an anti-CBS antibody (3E1, 1:2000; Abnova) or anti-CSE antibody (1:500, GeneTex). The densities of protein bands for hCBS or hCSE in the blots were quantified with the ImageJ software (National Institutes of Health, Bethesda, MD, USA) and expressed as ratios of respective control (EV group). All immunoblots are representative of at least two independent experiments using GAPDH as the loading control. The fluorescent images of the H2S (blue) were accordingly quantified (“Materials and Methods” section) with ImageJ. […] The DMSO groups of the controls (CTR), which are expressing of hCBS or hCSE, were normalized to 100% and the levels of H2S in CH004-treated or EV group are shown as relative percentages. c, d CH004 dose-dependently suppresses the activity of hCBS WT without affecting the activity of CH004-insensitive mutant. HEK293T cells stably expressing EV (i and ii), hCBS-FL wild type (293T-CBS WT; iii–v) or CBS-FL mutant (293T-CBS Q222A, vi–viii) were treated with DMSO (i–iii and vi), 5 μM CH004 (iv, vii) or 10 μM CH004 (v, viii) for 8 h before staining with the AzMC. For larger fluorescent and bright-field images, please see Supplementary Figures 5–6. […] The DMSO groups of the controls (CTR), which are expressing of hCBS-FL wt or Q222A mutant, were normalized to 100% and the levels of H2S in CH004-treated or EV group are shown as relative percentages. A representative fluorescence image from three independent experiments is shown. Means ± SDS (n = 3). Statistical analyses were performed on the raw data for each group by one-way (b) or two-way (d) ANOVA with Bonferroni post-tests. ***p < 0.001. Bars, 50 μm
H2S levels in living cells were detected using a H2S-specific fluorescent probe according to a protocol described previously[31],[55]. To measure H2S in transiently transfected HEK293T cells, the cells were seeded on poly-D-Lys-coated coverslips (Thermo Scientific, Waltham, MA, USA) in 12-well plates at a density of ~ 1 × 10^5 cells per well, and hCBS or hCSE plasmids were transiently transfected by X-tremeGENE HP DNA Transfection Reagent according to the manufacturer’s protocol (Roche, Basel, Switzerland). […] After incubation with 50 μM AzMC at 37 °C for 30 min, the cells were washed 4 times with PBS, and the fluorescent images were recorded with excitation by 405 nm laser by using a A1Si (Nikon) confocal microscope. The intensity of the blue fluorescent signals, indicating the amount of H2S, was quantified by ImageJ software (NIH, Bethesda, ML). The H2S signal was then corrected for the background signal detected in HEK293T cells transiently or stably expressing of empty vector (HEK293T-EV) and normalized by the corresponding cell-occupying area and compared with the control (DMSO group, 100%). Similarly, the H2S signal in HepG2 cells was quantified by AzMC staining, corrected for the background signal outside the cells, normalized by the cell area and expressed as percentages of DMSO control (100%). […]

As for `Cn1nc(Cc2ccccc2)nc2c(=O)n(C)c(=O)nc1-2` [CH004, 3-benzyl-1,6-dimethylpyrimido[5,4-e][1,2,4]triazine-5,7(1H,6H)-dione], the “decrease in H2S” value (5 μM) worked out at 22% and the “decrease in H2S” value (10 μM) is 43%.

Values taken from PMC6158189, “A pharmacological probe identifies cystathionine β-synthase as a new negative regulator for ferroptosis” (Cell Death & Disease, 2018).
